Patent US20150132328A1 (priority 2011, published 2015)
Where two headings read alike, the source gives them in different places.

Tests used:
[1] = test system: human lymphocytes
[2] = test system: rats with acute hepatitis induced with CCI4;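 also: endpoints determined in blood and liver tissue collected when the rats were sacrificed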
[3] = Acute Hepatitis + IMMP, time of CCI4 24
[4] = Acute Hepatitis + IMMP, time of CCI4 48
[5] = Acute Hepatitis + IMMP, time of CCI4 72

For Peptide LEDGPKFL + Zinc [IMMP], the “Concentrations that increased the proliferative response” value [1] was 10-10 M, the “Serum ALT” value [2, 3] was 351.0 ± 10.4 UI/L and the “Serum AST” value [2, 3] was 493.6 ± 30.3 UI/L. For the same substance, the “Serum PA (alkaline phosphatase)” value [2, 3] was 1139.0 ± 86.8 UI/L, the “Serum ALT” value [2, 4] was 275.54 ± 22.3 UI/L and the “Serum AST” value [2, 4] was 377.0 ± 17.7 UI/L. For the same substance, the “Serum PA (alkaline phosphatase)” value [2, 4] was 1287.5 ± 83.6 UI/L, the “Serum ALT” value [2, 5] was 233.0 ± 20.8 UI/L and the “Serum AST” value [2, 5] was 230.2 ± 15.4 UI/L. The “Serum PA (alkaline phosphatase)” value [2, 5] was 1306.2 ± 90.7 UI/L, the Hepatic glutathione ([2]; CCI4 + IMMP, 24 hours) was 13.3 ± 3.3 ng/mg of tissue and the “Relative weight of the liver (organ weight / weight of the animal)” value ([2]; CCI4 + IMMP, 24 hours after CCI4) was 8.0 ± 0.9 ^ relative units. The Hepatic glutathione ([2]; CCI4 + IMMP, 48 hours) was 14.2 ± 2.8 ng/mg of tissue, the “Relative weight of the liver (organ weight / weight of the animal)” value ([2]; CCI4 + IMMP, 48 hours after CCI4) was 6.8 ± 0.7 relative units and the Hepatic glutathione ([2]; CCI4 + IMMP, 72 hours) was 3.7 ± 1.6 ng/mg of tissue. For the same substance, the “Relative weight of the liver (organ weight / weight of the animal)” value ([2]; CCI4 + IMMP, 72 hours after CCI4) was 5.7 ± 0.5 relative units, the “Relative weight of the liver (organ weight / weight of the animal)” value ([2]; IMMP alone, no CCI4, 24 hours, 100 ng/kg i.p. x3) was 5.4 ± 0.5 relative units and the “Relative weight of the liver (organ weight / weight of the animal)” value ([2]; IMMP alone, no CCI4, 48 hours, 100 ng/kg i.p. x3) was 5.0 ± 0.4 relative units. For the same substance, the “Relative weight of the liver (organ weight / weight of the animal)” value ([2]; IMMP alone, no CCI4, 72 hours, 100 ng/kg i.p. x3) was 4.9 ± 0.2 relative units, the Hepatic glutathione ([2]; IMMP alone, 24 hours) was 3.1 ± 1.0 ng/mg of tissue and the Hepatic glutathione ([2]; IMMP alone, 48 hours) was 3.5 ± 0.3 ng/mg of tissue. The Hepatic glutathione ([2]; IMMP alone, 72 hours) was 5.1 ± 0.6 ng/mg of tissue, the “Serum ALT” value ([2]; IMMP alone, time 24) was 64.0 ± 22.4 UI/L and the “Serum AST” value ([2]; IMMP alone, time 24) was 72.4 ± 4.1 UI/L. The “Serum PA (alkaline phosphatase)” value ([2]; IMMP alone, time 24) was 525.0 ± 160 UI/L, the “Serum ALT” value ([2]; IMMP alone, time 48) was 73.1 ± 6.1 UI/L and the “Serum AST” value ([2]; IMMP alone, time 48) was 72.5 ± 3.9 UI/L. The “Serum PA (alkaline phosphatase)” value ([2]; IMMP alone, time 48) was 804.5 ± 39.5 UI/L, the “Serum ALT” value ([2]; IMMP alone, time 72) was 71.4 ± 8.4 UI/L and the “Serum AST” value ([2]; IMMP alone, time 72) was 71.6 ± 6.9 UI/L. The “Serum PA (alkaline phosphatase)” value ([2]; IMMP alone, time 72) was 604.0 ± 26.9 UI/L.
